Patent US11369569B2, “Target-specific delivery of therapeutic agents” (University of Virginia Patent Foundation, priority 2015, dated 2022)
Like-named read-outs stand apart in the source and are kept apart here.

How the values were obtained:
VEGFR2 = target: T1, VEGFR2 (Mus musculus, UniProt P35918); assay type: in vivo; settings: for Vessel volume fraction (VVF) in infarct region: day 7 post-MI
T1 construct: from tissue; host or cells: endothelium of infarct/border zone in mouse heart (in vivo)
T1 sequence (P35918 20-1345): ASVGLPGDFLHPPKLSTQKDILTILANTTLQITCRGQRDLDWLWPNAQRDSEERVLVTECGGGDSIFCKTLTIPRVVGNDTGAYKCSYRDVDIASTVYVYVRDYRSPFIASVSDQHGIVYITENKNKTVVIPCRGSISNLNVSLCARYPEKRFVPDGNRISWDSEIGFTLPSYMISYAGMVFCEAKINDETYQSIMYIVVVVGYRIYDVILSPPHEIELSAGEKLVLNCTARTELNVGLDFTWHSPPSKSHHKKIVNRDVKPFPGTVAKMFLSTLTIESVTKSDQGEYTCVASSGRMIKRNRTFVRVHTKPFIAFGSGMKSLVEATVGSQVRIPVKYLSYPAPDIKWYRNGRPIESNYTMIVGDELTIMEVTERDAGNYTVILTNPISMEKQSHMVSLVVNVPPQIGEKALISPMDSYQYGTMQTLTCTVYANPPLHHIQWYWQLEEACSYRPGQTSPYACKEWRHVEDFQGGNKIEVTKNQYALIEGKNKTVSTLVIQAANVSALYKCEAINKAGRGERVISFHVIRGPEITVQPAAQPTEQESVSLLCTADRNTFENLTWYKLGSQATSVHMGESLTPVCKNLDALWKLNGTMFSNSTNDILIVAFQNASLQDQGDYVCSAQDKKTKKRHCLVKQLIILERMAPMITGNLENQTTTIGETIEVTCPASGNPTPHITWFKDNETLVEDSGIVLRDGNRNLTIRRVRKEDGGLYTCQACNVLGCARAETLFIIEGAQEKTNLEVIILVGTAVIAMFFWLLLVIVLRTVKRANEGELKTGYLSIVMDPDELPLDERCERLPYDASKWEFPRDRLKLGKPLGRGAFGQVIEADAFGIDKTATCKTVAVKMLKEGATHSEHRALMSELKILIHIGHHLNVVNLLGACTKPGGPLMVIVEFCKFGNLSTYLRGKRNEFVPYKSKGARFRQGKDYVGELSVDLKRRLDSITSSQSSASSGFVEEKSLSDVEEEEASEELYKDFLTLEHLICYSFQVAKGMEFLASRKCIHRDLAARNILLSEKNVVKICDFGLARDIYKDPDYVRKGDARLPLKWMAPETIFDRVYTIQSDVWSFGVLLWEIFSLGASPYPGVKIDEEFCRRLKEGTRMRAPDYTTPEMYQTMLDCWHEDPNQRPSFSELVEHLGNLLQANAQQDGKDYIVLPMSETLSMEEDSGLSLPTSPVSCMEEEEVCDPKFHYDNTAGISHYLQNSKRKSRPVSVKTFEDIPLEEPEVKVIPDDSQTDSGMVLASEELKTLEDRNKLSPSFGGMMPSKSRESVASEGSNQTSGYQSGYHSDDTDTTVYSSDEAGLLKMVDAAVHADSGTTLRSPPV

[1] = tested on: cell types of interest in the infarct/border zone; experiment: Immunofluorescence of heart sections to identify cell types bound by phage clones; assay type: in vivo, mice; settings: immunostaining
Description: Following ex vivo imaging of heart and liver, hearts from the mice under study were fixed in 4% paraformaldehyde for 1 h followed by equilibration in 30% sucrose for overnight at 4° C. The hearts were washed 3-4 times in DPBS (Dulbecco's phosphate-buffered saline) and placed in OCT medium (Sakura Finetek USA, Inc, Torrance, Calif.) and frozen by placing over liquid N2 vapors. The embedded tissue samples cut into 5-7 μm sections using a cryostat (Leica Microsystems Inc, Buffalo Grove, Ill.), for subsequent imaging with a fluorescence microscope fitted with appropriate filter sets (Olympus BX41). Cell types of interest in the infarct/border zone were identified by immunohistochemistry using the following antibodies: rat anti-mouse CD 31 at 1:250 dilution (endothelial marker)(BD Biosciences, San Jose, Calif.), rat anti-mouse myoglobin at 1:200 (cardiomyocyte marker) (Santa Cruz Biotechnology Inc, Dallas, Tex.), anti-alpha-smooth muscle actin (aSMA) conjugated with Alexa Fluor 488 at 1:200 (myofibroblast marker) (Sigma Chemical Co., St. Louis, Mo.), and rabbit anti-mouse c-Kit at 1:150 (cardiac progenitor cell marker) (Santa Cruz Biotechnology Inc, Dallas, Tex.). […] Appropriate secondary antibodies were employed as needed to identify the primary antibodies:goat anti-rat Alexa Fluor 488 (1:250) and goat anti-rabbit Alexa Fluor 488 (1:250) (Abcam, Cambridge, Mass.). Binding of I-1 and B-50 phage clones to cardiomyocytes and c-Kit+ cells was determined by flow cytometry. The RL-14 cardiomyocyte cell line (ATCC) was used to test the binding of fluorescently labeled I-1 phage (VivoTag 645) and myocardial infarct derived cardiac and bone marrow cells to test the binding of fluorescently labeled B-50 phage (VivoTag 680).

CRIP-2 = target: T2, CRIP-2 (Mus musculus, UniProt Q9DCT8); set-up: reference not given here; settings: via binding to CRIP-2 in myocardium and endothelium; cited from earlier work
T2 construct: host or cells: myocardium and endothelium of the heart
T2 sequence (Q9DCT8 1-208): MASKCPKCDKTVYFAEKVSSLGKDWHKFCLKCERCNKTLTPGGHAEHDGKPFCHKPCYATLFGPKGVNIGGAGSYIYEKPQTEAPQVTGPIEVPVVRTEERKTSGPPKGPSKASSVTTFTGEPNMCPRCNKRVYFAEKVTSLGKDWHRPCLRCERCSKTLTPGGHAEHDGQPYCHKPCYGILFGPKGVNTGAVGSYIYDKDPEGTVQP

[2] = tested on: cell types of interest in the infarct/border zone; experiment: Immunofluorescence co-localization of peptide-conjugated liposomes with cell markers (JACoP, Mander's overlap); assay type: in vivo, mice; settings: post-MI hearts
EF fragment of Hornerin = target: T3, EF fragment of Hornerin (Homo sapiens, UniProt Q86YZ3); experiment: Biolayer interferometry of B-40 binding to hornerin EF fragments; settings: biotinylated B-40 peptide on streptavidin sensors
T3 construct: Different versions of the hornerin fragments containing EF domains were created; made in house
T3 sequence (Q86YZ3 1-81 limits assumed): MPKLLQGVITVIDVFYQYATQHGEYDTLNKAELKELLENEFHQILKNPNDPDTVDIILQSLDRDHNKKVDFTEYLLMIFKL
Description: FIG. 31 depicts biolayer interferometry to determine B-40 liposome binding to EF fragment of Hornerin. Using Fortebio octect system, B-40 liposomes binding to EF fragment was carried out. Streptavidin sensors were coated with Biotinylated EF fragments and their interaction with no peptide, I-1 and B-40 liposomes was tested.
FIG. 33 depicts biolayer interferometry to determine B-40 liposome binding to EF domains. Using Fortebio octect system, B-40 peptide binding to different EF fragments was carried out. Streptavidin sensors were coated with biotinylated B-40 peptide and its interaction with different fragments containing EF domains was carried out.

Row | Compound | Cell type / component for which phage clone is specific [1] | Cell type for which peptide conjugated liposomes are specific [2] | also measured
1 | Clc1ccc(Nc2nnc(Cc3ccncc3)c3ccccc23)cc1 [PTK787] | – | – | Percent effective in reducing neovessel formation (VEGFR2; 20 mg/kg-d): 18%; Vessel volume fraction (VVF) in infarct region (VEGFR2; 20 mg/kg-d): 0.052; Percent effective in reducing neovessel formation (VEGFR2; 100 mg/kg-d): 65%; Vessel volume fraction (VVF) in infarct region (VEGFR2; 100 mg/kg-d): 0.021; Vessel volume fraction (VVF) in infarct region (VEGFR2; 100 mg/kg-d, listed as free PTK787): 0.022; Median (ED50, bootstrap) (VEGFR2; 1000 nonparametric bootstrap data sets): 63 mg/kg-d; Estimated (ED50) (VEGFR2; Imax model fit from vessel volume fraction): 63 mg/kg-d
2 | AMRPPLN (listed as Homo sapiens) [B-42] | cardiomyocytes | – | –
3 | ATMSRAP (listed as Homo sapiens) [B-47] | endothelial cells | – | –
4 | CRPPR [CRPPR-peptide] | – | – | Targeting to the heart (CRIP-2): 47 fold
5 | ESRQVTP (listed as Homo sapiens) [B-43] | extracellular matrix | – | –
6 | GLSQLQR (listed as Homo sapiens) [B-50] | c-Kit+ cells | c-Kit+ cells | –
7 | NCP: intentionally off-target peptide (Panc-27) previously shown to be specific for pancreatic cancer cells (KTLLPTP) [reference compound] | – | non-specifically taken up by macrophages | –
8 | RPPALAP (listed as Homo sapiens) [B-29] | myofibroblasts | myofibroblasts | –
9 | SDTWSSR (listed as Homo sapiens) [B-7] | myofibroblasts | – | –
10 | SHSNARS (listed as Homo sapiens) [B-27] | c-Kit+ cells | – | –
11 | SLLNRMP (listed as Homo sapiens) [B-40] | endothelial cells | endothelial cells | Binding to fragments containing EF domains (EF fragment of Hornerin): possible binding partner
12 | TALPRLN (listed as Homo sapiens) [I-1] | cardiomyocytes | cardiomyocytes | –
13 | TMQHDG (listed as Homo sapiens) [B-11] | extracellular matrix | – | –
